{"source": "paper PMC6943527", "about": "“Are the Hydantoin-1,3,5-triazine 5-HT6R Ligands a Hope to a Find New Procognitive and Anti-Obesity Drug? Considerations Based on Primary In Vivo Assays and ADME-Tox Profile In Vitro” (Molecules, 2019)", "key": {"[1]": {"assay": "Metabolic stability and metabolic pathways in human liver microsomes", "protocol": "The pharmacokinetic parameters of compounds were estimated by using human liver microsomes (HLMs) (Sigma-Aldrich, St. Louis, MO, USA). The t1/2 values and intrinsic clearances (CLint) were calculated with IS by using the protocols and formulas proposed by Obach [38]. […] VL was used as the reference unstable drug."}, "[2]": {"target": "5-HT6", "set-up": "method as in PMID 30282913", "settings": "radioligand binding, average of at least two independent experiments; read-out: Ki 5-HT6 [3H]-LSD; cited from earlier work"}, "[3]": {"target": "5-HT1A", "set-up": "method as in PMID 30282913", "settings": "radioligand binding, average of at least two independent experiments; read-out: Ki 5-HT1A [3H]-8-OH-DPAT; cited from earlier work"}, "[4]": {"test_system": "human embryonic kidney (HEK)-293 cells", "set-up": "method as in PMID 30282913", "settings": "highest concentration 100 µM; cited from earlier work"}, "[5]": {"target": "D2", "set-up": "method as in PMID 30282913", "settings": "radioligand binding, average of at least two independent experiments; read-out: Ki D2 [3H]-Raclopride; cited from earlier work"}, "[6]": {"assay": "Parallel artificial membrane permeability assay (PAMPA)"}, "[7]": {"target": "5-HT7", "set-up": "method as in PMID 30282913", "settings": "radioligand binding, average of at least two independent experiments; read-out: Ki 5-HT7 [3H]-5-CT; cited from earlier work"}, "[8]": {"assay": "Hepatotoxicity assay, HepG2 cell viability", "assay_type": "cell-based", "settings": "human, HepG2 hepatoma cells, 100 µM, read-out: HepG2 cell viability, % of the control", "procedure": "The cell-based assays were used to investigate safety of the 5-HT6R ligands. […] During the same study, no effect for KMP-10 was observed. Additional safety tests with the hepatoma HepG2 cell line were performed here to estimate the compounds’ hepatotoxicity. A slight antiproliferative effect was observed only for DJ-18 at 100 µM, where the cell viability was decreased to up to ~83% of the control (Figure 9a).\nHepatotoxicity was estimated using the hepatoma HepG2 (ATCC® HB-8065^TM) cell line according to previously described protocols. The CellTiter 96® AQueous Non-Radioactive Cell Proliferation Assay was obtained from Promega (Madison, WI, USA). The compounds were investigated in quadruplicate at four concentrations (0.1–100 µM) for 72h. The antiproliferative drug DX was used as a positive control at a dose of 1 µM."}, "[9]": {"set-up": "method as in PMID 29297106", "settings": "earlier studies; cited from earlier work"}, "[10]": {"target": "T1, CYP3A4 (Homo sapiens, UniProt P08684)", "T1 construct": "purchased Promega (Madison, WI, USA)", "T1 sequence (P08684 whole entry)": "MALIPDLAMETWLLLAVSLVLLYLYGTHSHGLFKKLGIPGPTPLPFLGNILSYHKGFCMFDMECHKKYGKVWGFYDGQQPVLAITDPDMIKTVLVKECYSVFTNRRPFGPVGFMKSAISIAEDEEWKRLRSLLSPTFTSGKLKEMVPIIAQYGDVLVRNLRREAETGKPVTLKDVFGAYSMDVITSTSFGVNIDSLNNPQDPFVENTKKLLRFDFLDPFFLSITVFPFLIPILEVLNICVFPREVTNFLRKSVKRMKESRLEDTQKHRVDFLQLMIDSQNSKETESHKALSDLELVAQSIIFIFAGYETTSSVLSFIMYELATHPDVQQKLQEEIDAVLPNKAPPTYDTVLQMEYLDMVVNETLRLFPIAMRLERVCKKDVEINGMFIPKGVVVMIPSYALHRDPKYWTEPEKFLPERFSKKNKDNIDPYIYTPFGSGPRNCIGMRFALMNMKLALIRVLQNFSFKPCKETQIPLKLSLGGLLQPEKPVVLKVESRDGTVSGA", "set-up": "method as in PMID 28212021", "settings": "cited from earlier work"}, "[11]": {"settings": "cited from earlier work"}, "[12]": {"target": "T2, CYP2D6 (Homo sapiens, UniProt P10635)", "T2 construct": "purchased Promega (Madison, WI, USA)", "T2 sequence (P10635 whole entry)": "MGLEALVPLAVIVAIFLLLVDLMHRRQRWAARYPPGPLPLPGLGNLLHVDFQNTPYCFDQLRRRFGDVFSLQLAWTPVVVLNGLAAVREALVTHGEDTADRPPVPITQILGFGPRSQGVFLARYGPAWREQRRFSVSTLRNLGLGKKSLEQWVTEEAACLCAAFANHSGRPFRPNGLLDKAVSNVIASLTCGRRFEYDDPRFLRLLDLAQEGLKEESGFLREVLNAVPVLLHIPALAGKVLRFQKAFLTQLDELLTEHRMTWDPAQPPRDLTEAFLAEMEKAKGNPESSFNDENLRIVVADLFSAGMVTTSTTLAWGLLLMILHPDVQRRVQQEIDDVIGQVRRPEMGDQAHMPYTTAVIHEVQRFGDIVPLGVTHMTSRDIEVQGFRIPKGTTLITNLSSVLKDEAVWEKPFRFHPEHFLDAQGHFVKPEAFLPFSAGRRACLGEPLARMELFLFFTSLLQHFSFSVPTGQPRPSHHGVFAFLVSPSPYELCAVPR", "set-up": "method as in PMID 28212021", "settings": "cited from earlier work"}}}
{"smiles": "CN1CCN(c2nc(N)nc(CN3C(=O)N(Cc4ccc(Cl)cc4)C(C)(C)C3=O)n2)CC1", "note": "[DJ-18]", "values": [{"measurement": "Metabolic Pathway, metabolite M1", "setting": "[1]; HLMs, 120 min incubation", "value": "demethylation"}, {"measurement": "Metabolic Pathway, metabolite M2", "setting": "[1]; HLMs, 120 min incubation", "value": "hydroxylation"}, {"measurement": "Metabolic Pathway, metabolite M3", "setting": "[1]; HLMs, 120 min incubation", "value": "demethylation and hydroxylation"}, {"measurement": "Metabolic Pathway, metabolite M4", "setting": "[1]; HLMs, 120 min incubation", "value": "hydroxylation"}, {"measurement": "Intrinsic Clearance CLint", "setting": "[1]; HLMs, reactions terminated at 5, 15, 30 and 45 min", "value": 4.32, "unit": "mL/min/kg"}, {"measurement": "t1/2, fold longer than verapamil", "setting": "[1]; HLMs, vs unstable reference verapamil", "value": "~ 6 fold"}, {"measurement": "half-life", "setting": "[1]; human, liver microsomes, Half-Life t1/2, HLMs, reactions terminated at 5, 15, 30 and 45 min", "value": 3.12, "unit": "h"}, {"measurement": "Ki", "setting": "[2]", "value": 0.127, "unit": "µM"}, {"measurement": "Ki", "setting": "[3]", "value": 23.3, "unit": "µM"}, {"measurement": "HEK-293 cells viability", "setting": "[4]", "value": "statistically significant slight decrease"}, {"measurement": "Ki", "setting": "[5]", "value": 4.1, "unit": "µM"}, {"measurement": "Papp at 5 h, 200 µM", "setting": "[6]; PAMPA, pH 7.4", "value": "24.9 ± 0.45", "unit": "×10⁻⁶ cm/s"}, {"measurement": "PAMPA ability to penetrate the artificial membrane, fold stronger than caffeine", "setting": "[6]; vs high-permeable reference caffeine", "value": "~ 1.65"}, {"measurement": "Ki", "setting": "[7]", "value": 3.71, "unit": "µM"}, {"measurement": "viability at 72 h, 100 µM", "setting": "[8]", "value": "~83", "unit": "%"}]}
{"smiles": "Fc1ccc2c(CCNCc3cccc(OCC(F)(F)C(F)F)c3)c[nH]c2c1", "note": "[Idalopirdine]", "values": [{"measurement": "Amount of visceral fat", "setting": "[9]", "value": "significantly reduced"}, {"measurement": "Elevated glucose levels", "setting": "[9]", "value": "compensated for elevated glucose levels"}]}
{"smiles": "CCn1cc(C(=O)O)c(=O)c2cc(F)c(N3CCNCC3)cc21", "note": "[Norfloxacin, norfloxacin, reference compound]", "values": [{"measurement": "PAMPA Pe ± SD", "setting": "[6]; 200 µM in PBS pH 7.4, 5 h, room temperature, triplicate", "value": "0.56 ± 0.13 10^−6 cm/s"}]}
{"smiles": "COc1ccc2c(c1)c(CN1CCN(C)CC1)cn2S(=O)(=O)c1ccccc1Br.CS(=O)(=O)O.CS(=O)(=O)O.O", "note": "[SUVN-502, 1-[(2-Bromophenyl)sulfonyl]-5-methoxy-3-[(4-methyl-1-piperazinyl)methyl]-1H-indole Dimesylate Monohydrate]", "values": [{"measurement": "CYP3A4 inhibition", "setting": "[10]", "value": "rather strong inhibitor"}, {"measurement": "BBB-penetration", "setting": "[11]; after oral administration", "value": "good BBB (blood brain barrier)-penetration"}, {"measurement": "t1/2 in vivo", "setting": "[11]; pharmacokinetics in vivo", "value": 0.95, "unit": "h"}, {"measurement": "CYP2D6 inhibition", "setting": "[12]", "value": "weaker inhibitor"}]}
